Assay results from patent publication US20070275961A1, “Triazolo ' 1, 5-A ! Pyrimidines and Their Use in Medicine” (VERNALIS (CAMBRIDGE) LIMITED., priority 2003, published 2007).
Like-named read-outs stand apart in the source and are kept apart here.

Legend:
Type in all cases: biochemical
Chk1 = biological target: T1, Chk1 (Homo sapiens, UniProt O14757); test: Chk1 kinase assay, phosphorylation of Chktide (33P-ATP filtration); conditions: 0.01 mM ATP, read-out: Chk1 IC50
T1 sequence (O14757 1-476): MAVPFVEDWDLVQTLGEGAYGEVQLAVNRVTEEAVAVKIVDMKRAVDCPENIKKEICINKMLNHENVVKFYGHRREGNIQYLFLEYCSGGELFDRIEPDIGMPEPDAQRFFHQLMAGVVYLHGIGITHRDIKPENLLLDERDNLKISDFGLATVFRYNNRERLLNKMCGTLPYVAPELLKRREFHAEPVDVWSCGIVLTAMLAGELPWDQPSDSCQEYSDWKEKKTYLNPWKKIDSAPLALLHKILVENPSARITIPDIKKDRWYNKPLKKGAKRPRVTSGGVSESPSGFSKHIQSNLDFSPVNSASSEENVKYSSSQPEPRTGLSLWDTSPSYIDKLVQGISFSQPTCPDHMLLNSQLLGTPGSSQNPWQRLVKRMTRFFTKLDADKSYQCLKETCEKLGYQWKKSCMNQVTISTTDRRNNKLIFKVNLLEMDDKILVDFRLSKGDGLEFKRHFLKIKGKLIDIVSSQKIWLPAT
Procedure, shortened: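 GST-Chk1 (11 nM) with inhibitor, 30 μM Chktide peptide, 0.01 mM ATP plus 33P-γ-ATP in 50 mM Hepes pH 7.5 with 0.1 mg/ml BSA, 40 min at 30° C. Stopped with phosphoric acid; phosphorylated peptide captured on filter plates and scintillation-counted.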

[1] = biological target: CDK2 enzyme, complexed with cyclin A (Homo sapiens, UniProt P24941); test: CDK2 cyclin dependent kinase assay, phosphorylation of synthetic peptide […] (33P-ATP filtration); conditions: 0.1 mM ATP
PDK1 enzyme = biological target: T2, PDK1 enzyme (Homo sapiens, UniProt O15530); test: PDK1 3'-phosphoinositide-dependent kinase assay, phosphorylation of synthetic peptide (33P-ATP filtration); conditions: 0.01 mM ATP, read-out: PDK1 IC50
T2 sequence (O15530 1-556): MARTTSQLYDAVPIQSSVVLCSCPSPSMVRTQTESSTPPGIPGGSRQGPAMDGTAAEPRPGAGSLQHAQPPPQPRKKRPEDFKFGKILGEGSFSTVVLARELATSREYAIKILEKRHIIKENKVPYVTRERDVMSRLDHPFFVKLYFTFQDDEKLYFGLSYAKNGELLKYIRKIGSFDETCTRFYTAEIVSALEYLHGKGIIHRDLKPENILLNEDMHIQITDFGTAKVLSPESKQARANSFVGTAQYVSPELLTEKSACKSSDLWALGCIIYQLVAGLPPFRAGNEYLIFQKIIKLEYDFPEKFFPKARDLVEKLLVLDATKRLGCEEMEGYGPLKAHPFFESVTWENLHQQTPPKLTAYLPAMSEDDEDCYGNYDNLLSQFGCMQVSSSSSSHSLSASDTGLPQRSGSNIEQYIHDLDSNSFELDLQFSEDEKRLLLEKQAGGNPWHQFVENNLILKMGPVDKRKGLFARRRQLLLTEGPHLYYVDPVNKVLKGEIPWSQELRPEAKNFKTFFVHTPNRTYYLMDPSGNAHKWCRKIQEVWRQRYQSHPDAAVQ
Procedure, shortened: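 Radiometric peptide phosphorylation by PDK1 with inhibitor, 60 min at 30 °C, using 0.01 mM ATP plus 33P-γ-ATP, 0.075 mM peptide, 7.5 mM Mg acetate in Tris-HCl pH 7.5. Phosphoric acid stopped reaction; phosphorylated peptide captured on filter plates and counted by scintillation.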

SMILES | IC50 (Chk1; Table 3) | IC50 ([1]; Table 3) | IC50 (PDK1 enzyme; Table 3) | IC50 (Chk1; Table 4) | IC50 ([1]; Table 4) | IC50 (PDK1 enzyme; Table 4)
O=C(O)c1ccc(Nc2cc(-c3cccc(F)c3)n3ncnc3n2)cc1 [Example 132] | > 200 µM | > 200 µM | 36.2 µM |  |  | 
CCOC(=O)Cc1ccc(Nc2cc(-c3cccc(F)c3)n3ncnc3n2)cc1 [Example 133] | 8.84 µM | > 200 µM | 2.25 µM |  |  | 
NC(=O)c1cccc(Nc2cc(-c3cccc(F)c3)n3ncnc3n2)c1 [Example 134] | 23.2 µM | > 200 µM | 8.09 µM |  |  | 
COc1ccc(C)cc1-c1cc(Nc2ccc(C(N)=O)cc2)nc2ncnn12 [Example 135] | 107 µM | > 200 µM | 10.7 µM |  |  | 
NC(=O)c1ccc(Nc2cc(-c3ccc4c(c3)OCO4)n3ncnc3n2)cc1 [Example 137] | 14.2 µM | > 200 µM | 29.1 µM |  |  | 
CCN(CC)CCNC(=O)c1ccc(Nc2cc(-c3ccc4c(c3)OCO4)n3ncnc3n2)cc1 [Example 140] | 1 µM | > 200 µM | 1.8 µM |  |  | 
CCN(CC)CCOc1cccc(-c2cc(Nc3ccc(C(N)=O)cc3)nc3ncnn23)c1 [Example 146] |  |  |  | 20.8 µM | 5.51 µM | 7.6 µM
NCCCOc1cccc(-c2cc(Nc3ccc(C(N)=O)cc3)nc3ncnn23)c1 [Example 147] |  |  |  | 5.21 µM | 71.7 µM | 6.13 µM
NC(=O)c1ccc(Nc2cc(-c3cccc(OCc4ccccc4)c3)n3ncnc3n2)cc1 [Example 149] |  |  |  | 4.12 µM | 8.41 µM | 2.26 µM
CCN(CC)CCNC(=O)c1ccc(Nc2cc(-c3cccc(OCCN)c3)n3ncnc3n2)cc1 [Example 165] |  |  |  | 1.4 µM | 7.89 µM | 0.81 µM

Next, values leading:

IC50 (Chk1; Table 3) | IC50 ([1]; Table 3) | IC50 (PDK1 enzyme; Table 3) | IC50 (Chk1; Table 4) | IC50 ([1]; Table 4) | IC50 (PDK1 enzyme; Table 4) | SMILES
26.3 µM | > 200 µM | 69.4 µM |  |  |  | CC(=O)Nc1cccc(Nc2cc(-c3cccc(F)c3)n3ncnc3n2)c1 [Example 131]
13.7 µM | > 200 µM | 92.9 µM |  |  |  | NC(=O)c1ccc(Nc2cc(-c3ccc4ccccc4c3)n3ncnc3n2)cc1 [Example 136]
26.1 µM | > 200 µM | 4.21 µM |  |  |  | Cc1ccc(-c2cc(Nc3ccc(C(N)=O)cc3)nc3ncnn23)cc1 [Example 138]
3.76 µM | > 200 µM | 1.12 µM |  |  |  | NC(=O)Cc1ccc(Nc2cc(-c3cccc(F)c3)n3ncnc3n2)cc1 [Example 139]
 |  |  | 9.86 µM | 23.1 µM | 1.73 µM | NC(=O)c1ccc(Nc2cc(-c3cccc(OCc4cccnc4)c3)n3ncnc3n2)cc1 [Example 145]
 |  |  | 17 µM | 5.38 µM | 10.4 µM | NC(=O)c1ccc(Nc2cc(-c3cccc(OCC4CCCNC4)c3)n3ncnc3n2)cc1 (stereo not drawn) [Example 148]
 |  |  | 3 µM | 47.5 µM | 0.25 µM | NCCOc1cccc(-c2cc(Nc3ccc(C(N)=O)cc3)nc3ncnn23)c1 [Example 151]
 |  |  | 6.05 µM | 6.56 µM | 4.82 µM | NC(=O)COc1cccc(-c2cc(Nc3ccc(C(N)=O)cc3)nc3ncnn23)c1 [Example 157]
 |  |  | 2.7 µM | 2.58 µM | 1.2 µM | CCc1cc(OCCN)cc(-c2cc(Nc3ccc(C(N)=O)cc3)nc3ncnn23)c1 [Example 166]
